Source: patent US20240197709A1, “POTENTIATING THE TUMOR-SELECTIVE EFFECTS OF NQO1-BIOACTIVATABLE AGENT BY USE OF CMET INHIBITOR” (The Trustees of Indiana University, priority 2022, published 2024)

What was measured:
[1] = test system: Capan2 shMET; assay: long-term survival (DNA assay), Capan2 shSCR versus shMET; assay type: cell-based; settings: DIC 50 μM
Excerpt: FIG. 1-1R. Graph showing relative long-term survival in isogenic Capan2 shSCR versus shMET cell lines using the DNA assay.
Dicoumarol (DIC) is a well-established NQO1 inhibitor (Asher, et al., Biochemistry 2006, 45(20), 6372-8; Motea, et al., Clin Cancer Res 2019, 25(8), 2601-2609; Huang, et al., Cancer Cell 2016, 30(6), 940-952).

[2] = test system: cellular hydrogen peroxide (H2O2) levels in A549 cells; assay: ROS-Glo H2O2 Assay; assay type: cell-based; settings: A549, DIC 50 μM
Method: FIG. 2-1A. […] Growth media was then replaced with fresh media containing β-lap (3 μM) alone, criz alone (1 μM) or combination±DIC (50 μM) and collected at 15 and 120 min to measure H2O2 production using the ROS-Glo™ H2O2 Assay from Promega (Madison, WI). The assay was performed in three biological replicates.
Next, we sought to investigate the mechanistic role of cMET in promoting resistance to ROS-induced DNA lesions caused by the futile redox cycling of β-lap with NQO1. […] In response to H2O2 stimulation, cMET can translocate into the nucleus where it interacts with PARP1 for activation to enhance the repair of ROS-induced DNA damage. […] Next we performed PARP1 immunoprecipitation studies to determine whether it associates with activated cMET in the nucleus following treatment with β-lap at increasing doses.

[3] = test system: A549 NSCLC cell migration and invasion; settings: A549, crizotinib+β-lap+DIC
Method: FIG. 4A. Representative images of A549 NSCLC cell migration at indicated treatment conditions at 16 h post-treatment using a Boyden chamber migration assay: 2 h pre-treatment with criz followed by additional 2 h with criz±β-lap.
FIG. 4B. Bar graph showing quantification of cell migration expressed as a percent of control (vehicle).
FIG. 4C. Representative images of A549 NSCLC cell invasion at indicated treatment conditions at 16 h post-treatment using a matrigel-coated Boyden chamber invasion assay: 2 h pre-treatment with criz followed by additional 2 h with criz±β-lap.
FIG. 4D. Bar graph showing quantification of cell invasion expressed as a percent of control (vehicle).

[4] = test system: IMR90 lung fibroblast cell line; assay: long-term cell survival assay, IMR90; assay type: cell-based, human; settings: IMR90, no NQO1, high CAT; criz ± sub-lethal β-lap (3 μM)
Method: FIG. 1D. […] LC50 values were calculated from long-term cell survival graphs using GraphPad PRISM; ND denotes Not Determined even at the highest concentration presented. All error bars represent the mean±SEM. **** p<0.0001, *** p<0.001, ** p<0.01, *p<0.05.

[5] = test system: Capan2-mCherry microtumor; assay: 3D spheroid co-culture, tumor cells; assay type: cell-based; settings: 3D co-culture with NIH3T3-GFP; crizotinib 2 μM, β-lap 2 μM or 4 μM
Method: FIG. 5D. Top Inset: Representative brightfield, green (NIH3T3-GFP), red (Capan2-mCherry), and merged images of 3D spheroid co-culture of Capan2-mCherry (cancer cells) and NIH3T3-GFP (normal cells). 3D co-cultures were exposed to specified treatment conditions and imaged at indicated times to monitor drug response. Scale bar=250 μm. Untreated NIH3T3-GFP 3D spheroid culture by itself (imaged at indicated times) was added for reference.
FIG. 5E. Bar graph of Capan2-mCherry 3D spheroid microtumor growth at specified treatment conditions over time. Asterisk (*) indicates synergistic response in the combination treatment compared to the corresponding individual treatments alone.
Next, we investigated the tumor-selectivity and efficacy of our combination treatment strategy using 3D co-culture spheroids of Capan2 PDAC (permanently labelled with mCherry) and NIH3T3 mouse embryonic fibroblast cells (permanently labelled with GFP) to mimic physiological cell-cell and cell-environment interactions during treatment. […] These are consistent with patient data comparing associated normal tissues versus tumors in pancreas (FIGS. 1-1B, 1-1G) and lungs (FIGS. 1A, 1-1B, 1-1H). Using confocal fluorescent microscopy, we noted that NIH3T3-GFP fibroblast cells were surrounding the Capan2-mCherry PDAC cells in the 3D spheroid co-culture (FIG. 5D).

[6] = in vivo; cited from earlier work

SMILES | effect of added DIC on β-lap sensitivity [1] | H2O2 formation, DIC added to β-lap+criz [2] | migration and invasion, DIC added to the combination treatment [3] | long-term cell survival (sensitivity) [4] | Capan2-mCherry microtumor growth [5] | MTD [6]
O=c1oc2ccccc2c(O)c1Cc1c(O)c2ccccc2oc1=O [DIC, Dicoumarol] | rescued | prevented H2O2 formation | restored the ability of A549 to migrate and invade | – | – | –
C[C@@H](Oc1cc(-c2cnn(C3CCNCC3)c2)cnc1N)c1c(Cl)ccc(F)c1Cl [crizotinib] | – | – | – | remained resistant | very little effect on tumor growth | 250 mg twice daily
